Assay results taken from PMC8151276, “An Integrated Approach toward NanoBRET Tracers for Analysis of GPCR Ligand Engagement” (Molecules, 2021).

Columns and labels:
Type in all cases: binding
LHCGR = target: T1, LHCGR (Homo sapiens, UniProt P22888); test: NanoBRET screen HiBiT-LHCGR in HEK293
T1 construct: purchased Promega (in-house HiBiT-GPCR construct library, NanoBRET)
Protocol: (§1) Each tracer candidate was screened across the entire library of HiBiT-GPCR constructs using NanoBRET as the detection modality. As depicted in Figure 4A, the specificity of interactions was evaluated through decrease in BRET due to competitive displacement of a bound tracer by excess parental compound. Each tracer was analyzed for binding to each HiBiT-GPCR fusion in the absence and in the presence of competing parental compound. Briefly, HEK293 cells were transfected with HiBiT-GPCR constructs diluted into promoterless DNA to reduce expression and maximize translocation to the cell surface. Each tracer candidate was then screened at concentrations of 1 μM and 0.1 μM across cells expressing these fusions. Cells were treated for 1.5 h with tracer either alone or in the presence of 20 μM competing parental compound (i.e., control). BRET was measured upon addition of purified LgBiT and subsequent complementation with HiBiT genetically fused to a GPCR. The specificity of interactions was assessed through a decrease in BRET signal due to competitive displacement of the bound tracer. To further gauge the robustness of these interactions, the fold response over the control (i.e., BRETtracer/BRETcontrol) was calculated. We chose a 1.5-fold response, which translates to ≥7-fold signal over noise as the minimal threshold required to score an interaction as positive. […]. Below we highlight the screening results obtained for our exemplary fluorescent tracers based on Clozapine, Amitriptyline and AZD1283.
(§2) HiBiT-GPCR DNA constructs were diluted in 10 mM Tris pH 8 to a final concentration of 0.01 μg/μL, arrayed in 96-well plates and stored at −20 °C. For transfection, HEK293 cells were suspended in Opti-MEM (without phenol red) supplemented with 2% fetal bovine serum (Seradigm) and 100 units/mL penicillin–streptomycin (Gibco) at a final concentration of 220,000 cells/mL and dispensed into white 96-well plates at 90 μL/well. Subsequent transfections and screens were carried using an Agilent Bravo Automated Liquid Handling Platform. First, the 96-well HiBiT DNA arrays were diluted 25-fold in Opti-MEM (without serum or phenol red) to a final concentration of 0.0004 μg/μL and 20 μL of the diluted DNAs were transferred into new 96-well plates. Next, promoterless carrier DNA (1 μg/μL) was diluted 25-fold (0.04 μg/μL) and then dispensed into the diluted arrays at 20 μL/well. Following brief mixing, Viafect transfection reagent (Promega) diluted 16-fold into Opti-MEM was dispensed into the plates at 40 μL/well. After mixing by pipetting, plates were incubated for 10 min on the pipetting station deck. The DNA-transfection reagent complexes were then added to plates containing cells. To facilitate the screen, 10 μL of DNA-transfection reagent complexes were added in duplicates to the top 4 and bottom 4 rows, resulting in two identical 48-well arrays per plate. Plates with transfected cells were incubated for 18–20 h at 37 °C/5% CO2. A screen of each tracer across the entire library using two different concentrations requires duplicate plates of transfected cells. Depending on the number of tracers being screened, transfections can be scaled up using the same ratios. The next day, for each tracer, four 20× screening solutions in tracer dilution buffer (Promega) were prepared: two duplicates at final concentration of 20 μM and two duplicates at a final concentration of 2 μM. A competing unmodified compound was added to one of each duplicate at a final concentration of 400 μM. The four resulting solutions were diluted 4-fold in Opti-MEM without serum or phenol red to generate 5× solutions (5 µM and 0.5 µM tracer +/− 100 μM competing compound). To screen the library, a BioTek MultiFlo FX liquid dispenser was used to dispense 22.5 µL of tracer solution to the top 4 rows and 22.5 µL tracer + competing compound solution to the 4 bottom rows. Plates were briefly mixed on an orbital shaker and incubated for 1.5 h at room temperature. […]

PTGIR = target: T2, PTGIR (Homo sapiens, UniProt P43119); test: NanoBRET screen HiBiT-PTGIR in HEK293
T2 construct: purchased Promega (in-house HiBiT-GPCR construct library, NanoBRET)
Protocol: as §1, §2

TACR3 = target: T3, TACR3 (Homo sapiens, UniProt P29371); test: NanoBRET screen HiBiT-TACR3 in HEK293
T3 construct: purchased Promega (in-house HiBiT-GPCR construct library, NanoBRET)
T3 sequence (P29371 1-465): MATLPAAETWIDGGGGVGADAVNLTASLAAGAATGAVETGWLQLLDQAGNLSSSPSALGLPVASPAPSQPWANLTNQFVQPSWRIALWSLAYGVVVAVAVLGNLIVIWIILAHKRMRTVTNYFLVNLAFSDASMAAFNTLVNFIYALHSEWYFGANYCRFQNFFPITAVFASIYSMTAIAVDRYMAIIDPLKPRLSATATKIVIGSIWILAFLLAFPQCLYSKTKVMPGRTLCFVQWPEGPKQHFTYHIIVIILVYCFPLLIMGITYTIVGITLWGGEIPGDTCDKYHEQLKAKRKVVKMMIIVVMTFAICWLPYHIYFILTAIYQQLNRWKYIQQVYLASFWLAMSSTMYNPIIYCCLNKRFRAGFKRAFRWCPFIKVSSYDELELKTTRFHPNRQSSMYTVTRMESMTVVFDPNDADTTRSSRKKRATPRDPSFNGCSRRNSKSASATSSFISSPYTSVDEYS
Protocol: as §1, §2

T2 sequence (P43119 whole entry): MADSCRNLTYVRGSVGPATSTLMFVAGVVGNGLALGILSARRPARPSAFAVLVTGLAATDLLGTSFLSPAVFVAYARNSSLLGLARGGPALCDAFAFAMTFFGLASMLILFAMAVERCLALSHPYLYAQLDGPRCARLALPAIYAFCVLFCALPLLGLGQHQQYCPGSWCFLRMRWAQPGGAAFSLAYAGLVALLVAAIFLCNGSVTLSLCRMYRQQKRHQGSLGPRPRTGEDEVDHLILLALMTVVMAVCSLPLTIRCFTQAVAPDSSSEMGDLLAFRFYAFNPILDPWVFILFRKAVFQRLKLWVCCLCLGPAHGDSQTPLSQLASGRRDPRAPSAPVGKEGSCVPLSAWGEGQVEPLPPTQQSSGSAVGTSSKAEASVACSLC
T1 sequence (P22888 27-699): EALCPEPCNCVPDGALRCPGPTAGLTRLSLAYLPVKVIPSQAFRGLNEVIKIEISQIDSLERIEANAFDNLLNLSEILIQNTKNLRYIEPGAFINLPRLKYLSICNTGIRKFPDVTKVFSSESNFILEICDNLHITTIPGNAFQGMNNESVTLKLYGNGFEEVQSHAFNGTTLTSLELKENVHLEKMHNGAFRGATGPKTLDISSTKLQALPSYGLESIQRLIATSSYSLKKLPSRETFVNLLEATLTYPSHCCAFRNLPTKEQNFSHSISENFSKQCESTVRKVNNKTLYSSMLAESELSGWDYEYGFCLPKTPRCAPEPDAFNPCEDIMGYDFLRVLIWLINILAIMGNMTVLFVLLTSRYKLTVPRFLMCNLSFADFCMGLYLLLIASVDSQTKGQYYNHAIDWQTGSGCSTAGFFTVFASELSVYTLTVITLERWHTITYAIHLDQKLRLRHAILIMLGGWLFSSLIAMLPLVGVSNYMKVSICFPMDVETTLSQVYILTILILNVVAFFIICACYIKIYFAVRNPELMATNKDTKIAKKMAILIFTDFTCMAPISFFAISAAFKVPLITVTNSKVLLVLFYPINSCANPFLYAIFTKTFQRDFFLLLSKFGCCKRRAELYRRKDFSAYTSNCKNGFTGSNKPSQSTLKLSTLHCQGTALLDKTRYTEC

Row | Compound | NanoBRET Fold Response (LHCGR; LHCGR, tracer 0.1μM) | NanoBRET Fold Response (LHCGR; LHCGR, tracer 1μM) | NanoBRET Fold Response (PTGIR; PTGIR, tracer 0.1μM) | NanoBRET Fold Response (PTGIR; PTGIR, tracer 1μM) | NanoBRET Fold Response (TACR3; TACR3, tracer 0.1μM) | NanoBRET Fold Response (TACR3; TACR3, tracer 1μM) | further results
1 | COc1ccc2[nH]c(-c3ccc(CNC(=O)CCOCCOCCOCCOCCNC(=O)CCc4ccc5n4[B-](F)(F)[N+]4=C(c6ccc[nH]6)C=CC4=C5)cc3)c(CCNC(C)=O)c2n1 [AzomelatoninICO9-2-NB590] | – | – | – | – | – | – | NanoBRET Fold Response (LHCGR; 0.1μM tracer): 1.01; NanoBRET Fold Response (LHCGR; 1μM tracer): 0.88; NanoBRET Fold Response (PTGIR; 0.1μM tracer): 1.03; NanoBRET Fold Response (PTGIR; 1μM tracer): 0.98; NanoBRET Fold Response (TACR3; 0.1μM tracer): 1.23; NanoBRET Fold Response (TACR3; 1μM tracer): 1.00
2 | O=C(CCc1ccc2n1[B-](F)(F)[N+]1=C(c3ccc[nH]3)C=CC1=C2)NCCOCCOCCNC(=O)OCCOCCN1CCN(C2=Nc3ccccc3Sc3ccccc32)CC1 [Quetiapine-a-2-NB590] | 1.01 | 0.79 | 1.03 | 0.94 | 1.04 | 0.83 | –
3 | O=C(CCOCCOCCOCCOCCNC(=O)CCc1ccc2n1[B-](F)(F)[N+]1=C(c3ccc[nH]3)C=CC1=C2)NCCCN1CCN(C2=Nc3cc(Cl)ccc3Nc3ccccc32)CC1 [Clozapine-a-2-NB590] | – | – | – | – | – | – | NanoBRET Fold Response (LHCGR; LHCGR, 0.1μM tracer): 0.93; NanoBRET Fold Response (LHCGR; LHCGR, 1μM tracer): 1.05; NanoBRET Fold Response (PTGIR; PTGIR, 0.1μM tracer): 1.04; NanoBRET Fold Response (PTGIR; PTGIR, 1μM tracer): 0.98; NanoBRET Fold Response (TACR3; TACR3, 0.1μM tracer): 0.99; NanoBRET Fold Response (TACR3; TACR3, 1μM tracer): 1.21
4 | N#CN=C(NCCCOc1cccc(CN2CCCCC2)c1)NCCNC(=O)CCOCCOCCOCCOCCNC(=O)CCc1ccc2n1[B-](F)(F)[N+]1=C(c3ccc[nH]3)C=CC1=C2 [Aminopotentidine-2-NB590] | 1.03 | 1.00 | 1.03 | 1.03 | 1.06 | 1.06 | –
5 | O=C(CCc1ccc2n1[B-](F)(F)[N+]1=C(c3ccc[nH]3)C=CC1=C2)NCc1ccc(C(=O)NCCOCCOCCNCC(O)COc2cccc3ccccc23)cc1 (stereo not drawn) [Propranolol-3-NB590] | – | – | – | – | – | – | NanoBRET Fold Response (LHCGR; LHCGR, 0.1μM): 1.04; NanoBRET Fold Response (LHCGR; LHCGR, 1μM): 1.00; NanoBRET Fold Response (PTGIR; PTGIR, 0.1μM): 1.05; NanoBRET Fold Response (PTGIR; PTGIR, 1μM): 0.97; NanoBRET Fold Response (TACR3; TACR3, 0.1μM): 1.06; NanoBRET Fold Response (TACR3; TACR3, 1μM): 0.99
6 | O=C(CCc1ccc2n1[B-](F)(F)[N+]1=C(c3ccc[nH]3)C=CC1=C2)NCc1ccc(C(=O)NCCOCCC(=O)N[C@@H]2CC[C@@]3(O)[C@H]4Cc5ccc(O)c6c5[C@@]3(CCN4CC3CC3)[C@H]2O6)cc1 [Naltrexone-3-NB590] | 0.89 | 1.12 | 0.98 | 1.17 | 1.19 | 0.93 | –
7 | COc1ccccc1N1CCN(CCCCN2C(=O)c3ccc(CNC(=O)CCOCCNC(=O)c4ccc(CNC(=O)CCc5ccc6n5[B-](F)(F)[N+]5=C(c7ccc[nH]7)C=CC5=C6)cc4)cc3C2=O)CC1 [NAN-190-3-NB590] | 0.98 | 1.08 | 0.95 | 1.01 | 0.97 | 0.96 | –
8 | Cc1cc2c(s1)Nc1ccccc1N=C2N1CCN(CCCNC(=O)CCOCCOCCOCCOCCNC(=O)CCc2ccc3n2[B-](F)(F)[N+]2=C(c4ccc[nH]4)C=CC2=C3)CC1 [Olanzapine-a-2-NB590] | 1.00 | 1.01 | 0.99 | 0.98 | 1.00 | 0.95 | –
9 | CCCn1c(=O)c2[nH]c(-c3ccc(OCC(=O)NCCNC(=O)CCOCCNC(=O)c4ccc(CNC(=O)CCc5ccc6n5[B-](F)(F)[N+]5=C(c7ccc[nH]7)C=CC5=C6)cc4)cc3)nc2n(CCC)c1=O [XAC-3-NB590] | 1.01 | 1.00 | 0.99 | 1.05 | 1.06 | 1.01 | –
10 | COc1ccc2c(n1)c(CCNC(C)=O)cn2CCNC(=O)CCc1ccc2n1[B-](F)(F)[N+]1=C(c3ccc[nH]3)C=CC1=C2 [Azamelatonin-1-NB590] | – | – | – | – | – | – | NanoBRET Fold Response (LHCGR; 0.1μM tracer): 1.03; NanoBRET Fold Response (LHCGR; 1μM tracer): 1.05; NanoBRET Fold Response (PTGIR; 0.1μM tracer): 0.94; NanoBRET Fold Response (PTGIR; 1μM tracer): 1.06; NanoBRET Fold Response (TACR3; 0.1μM tracer): 1.06; NanoBRET Fold Response (TACR3; 1μM tracer): 0.87
